Non-standard residues stand in square brackets, D forms with d. Residues, ends and D or L forms follow the SMILES beside them. 2Nal = N[C@@H](Cc1ccc2ccccc2c1)C(=O)O; d2Nal = N[C@H](Cc1ccc2ccccc2c1)C(=O)O; Hyp = O=C(O)[C@@H]1C[C@@H](O)CN1; Tic = O=C(O)[C@@H]1Cc2ccccc2CN1; dTic = O=C(O)[C@H]1Cc2ccccc2CN1; Ahx = NCCCCCC(=O)O; Sar = CNCC(=O)O
What was measured:
Experiment in all cases: cell-based
B1 receptor = target: T1, B1 receptor (Oryctolagus cuniculus, UniProt P48748); settings: for Kb: Rb.A. pA2, apparent affinity as antagonist vs desArg9BK; for Rb.A. α^E: residual agonistic activity at 10 μg/mL in comparison with desArg9BK
T1 sequence (P48748 1-352): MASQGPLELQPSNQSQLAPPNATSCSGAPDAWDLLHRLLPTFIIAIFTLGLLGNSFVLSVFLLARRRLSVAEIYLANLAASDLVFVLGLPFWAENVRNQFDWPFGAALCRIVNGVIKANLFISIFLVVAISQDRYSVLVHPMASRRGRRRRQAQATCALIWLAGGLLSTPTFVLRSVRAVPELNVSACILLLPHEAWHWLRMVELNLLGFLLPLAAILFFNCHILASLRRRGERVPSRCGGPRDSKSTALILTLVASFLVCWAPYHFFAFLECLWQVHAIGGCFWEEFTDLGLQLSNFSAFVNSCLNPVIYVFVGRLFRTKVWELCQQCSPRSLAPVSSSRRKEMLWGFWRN
Procedure, shortened: (§1)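 Isolated rabbit jugular vein (captopril 1 μmol/L), guinea pig ileum, endothelium-free rabbit aorta and human umbilical vein, in Krebs at 37 °C, with isometric tension recorded. Agonism was tested at 10 μg/mL.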

B2 receptor [1] = target: T2, B2 receptor (Cavia porcellus, UniProt O70526); settings: for G.P.I. pA2: vs BK, Inactive = no detectable antagonistic effect at ≦ 10 μg/ml, F.ag. full agonist, P.ag. partial agonist; for G.P.I. α^E: residual agonistic activity at 10 μg/mL in comparison with BK
T2 sequence (O70526 1-372): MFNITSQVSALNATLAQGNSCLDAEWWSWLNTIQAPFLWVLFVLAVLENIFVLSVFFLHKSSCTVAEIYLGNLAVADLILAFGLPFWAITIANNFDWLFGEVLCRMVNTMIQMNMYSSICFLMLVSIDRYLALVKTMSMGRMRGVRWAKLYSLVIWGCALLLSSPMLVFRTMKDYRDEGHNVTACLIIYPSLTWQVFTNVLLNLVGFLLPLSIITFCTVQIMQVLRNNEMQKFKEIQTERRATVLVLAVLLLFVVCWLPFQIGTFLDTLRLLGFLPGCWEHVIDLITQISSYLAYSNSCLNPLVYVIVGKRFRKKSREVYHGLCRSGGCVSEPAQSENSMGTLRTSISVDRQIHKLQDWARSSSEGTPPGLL
Procedure, shortened: as §1

B2 receptor [2] = target: T3, B2 receptor (Oryctolagus cuniculus, UniProt Q28642); settings: for Rb.J.V. α^E: residual agonistic activity at 10 μg/mL in comparison with BK
T3 sequence (Q28642 1-367): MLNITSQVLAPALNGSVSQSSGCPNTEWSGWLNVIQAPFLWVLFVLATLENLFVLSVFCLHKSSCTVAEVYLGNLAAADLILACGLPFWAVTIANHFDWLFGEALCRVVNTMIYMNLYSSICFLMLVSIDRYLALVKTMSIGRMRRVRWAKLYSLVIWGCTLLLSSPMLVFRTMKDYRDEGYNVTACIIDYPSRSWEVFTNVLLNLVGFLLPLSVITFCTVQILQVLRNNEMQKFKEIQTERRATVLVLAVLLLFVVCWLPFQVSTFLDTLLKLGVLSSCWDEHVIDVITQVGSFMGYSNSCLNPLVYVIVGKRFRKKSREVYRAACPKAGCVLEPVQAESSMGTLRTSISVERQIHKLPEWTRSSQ
Procedure, shortened: as §1

[3] = antagonist applied 10 min before, Inactive = no detectable antagonistic effect at ≦ 10 μg/ml

| Structure (SMILES) | Kb (B1 receptor; [3]) [nM] | G.P.I. pA2 (B2 receptor [1]) | Kb (B2 receptor [2]) [nM] | Rb.A. pA2 (B1 receptor; apparent affinity as antagonist vs desArg9BK, antagonist applied 10 min before, Inactive = no detectable antagonistic effect at ≦ 10 μg/ml) | Rb.A. α^E (B1 receptor) | Rb.J.V. α^E (B2 receptor [2]) | G.P.I. α^E (B2 receptor [1]) |
| --- | --- | --- | --- | --- | --- | --- | --- |
| CC(C)C[C@H](NC(=O)[C@H]1Cc2ccccc2CN1C(=O)[C@H](CO)NC(=O)[C@H](Cc1ccccc1)NC(=O)CNC(=O)[C@@H]1CCCN1C(=O)[C@@H]1CCCN1C(=O)[C@@H](N)CCCNC(=N)N)C(=O)O [Compound 8, (D-Tic^7, Leu^8)desArg^9BK] (H-RPPGFS[dTic]L-OH; N-terminus and C-terminus assumed) | 1380 | Inactive | – | – | – | – | – |
| CNCC(=O)N[C@@H](CCCNC(=N)N)C(=O)N1CCC[C@H]1C(=O)N1CCC[C@H]1C(=O)NCC(=O)N[C@@H](Cc1ccccc1)C(=O)N[C@@H](CO)C(=O)N1Cc2ccccc2C[C@@H]1C(=O)N[C@@H](CC(C)C)C(=O)O [Compound 9, Sar(D-Tic^7, Leu^8)desArg^9BK] (H-[Sar]RPPGFS[dTic]L-OH; N-terminus and C-terminus assumed) | 692 | Inactive | – | – | – | – | – |
| CC(C)C[C@H](NC(=O)[C@H]1Cc2ccccc2CN1C(=O)[C@H](CO)NC(=O)[C@H](Cc1ccccc1)NC(=O)CNC(=O)[C@@H]1CCCN1C(=O)[C@@H]1CCCN1C(=O)[C@H](CCCNC(=N)N)NC(=O)[C@H](N)CCCNC(=N)N)C(=O)O [Compound 12, D-Arg(D-Tic^7, Leu^8)desArg^9BK] (H-[dR]RPPGFS[dTic]L-OH; N-terminus and C-terminus assumed) | 200 | Inactive | 4470 | – | – | – | – |
| CC[C@H](C)[C@H](NC(=O)[C@H]1Cc2ccccc2CN1C(=O)[C@H](CO)NC(=O)[C@H](Cc1ccccc1)NC(=O)CNC(=O)[C@@H]1CCCN1C(=O)[C@@H]1CCCN1C(=O)[C@H](CCCNC(=N)N)NC(=O)[C@H](N)CCCNC(=N)N)C(=O)O [Compound 13, D-Arg(D-Tic^7, Ile^8)desArg^9BK] (H-[dR]RPPGFS[dTic]I-OH; N-terminus and C-terminus assumed) | 107 | Inactive | 4570 | 6.97 | – | – | – |
| CC[C@H](C)[C@H](NC(=O)[C@@H]1Cc2ccccc2CN1C(=O)[C@H](CO)NC(=O)[C@H](Cc1ccccc1)NC(=O)CNC(=O)[C@@H]1CCCN1C(=O)[C@@H]1CCCN1C(=O)[C@H](CCCNC(=N)N)NC(=O)[C@H](N)CCCNC(=N)N)C(=O)O [Compound 14, D-Arg(L-Tic^7, Ile^8)desArg^9BK] (H-[dR]RPPGFS[Tic]I-OH; N-terminus and C-terminus assumed) | > 9120 | Inactive | 6460 | – | – | – | – |
| CC(C)C[C@H](NC(=O)[C@H]1Cc2ccccc2CN1C(=O)[C@H](CO)NC(=O)[C@H](Cc1ccccc1)NC(=O)CNC(=O)[C@@H]1C[C@@H](O)CN1C(=O)[C@@H]1CCCN1C(=O)[C@H](CCCNC(=N)N)NC(=O)[C@H](N)CCCNC(=N)N)C(=O)O [Compound 17, D-Arg(Hyp^3, D-Tic^7, Leu^8)desArg^9BK] (H-[dR]RP[Hyp]GFS[dTic]L-OH; N-terminus and C-terminus assumed) | 229 | Inactive | > 9120 | – | – | – | – |
| CC(=O)N[C@@H](CCCCN)C(=O)N[C@@H](CCCNC(=N)N)C(=O)N1CCC[C@H]1C(=O)N1CCC[C@H]1C(=O)NCC(=O)N[C@@H](Cc1ccccc1)C(=O)N[C@@H](CO)C(=O)N[C@H](Cc1ccc2ccccc2c1)C(=O)N[C@@H](CC(C)C)C(=O)O [Compound 18, AcLys(D-βNal^7, Leu^8)desArg^9BK] (Ac-KRPPGFS[d2Nal]L-OH; C-terminus assumed) | 12.3 | Inactive | > 8710 | – | 0 | 0 | 0 |
| CC[C@H](C)[C@H](NC(=O)[C@@H](Cc1ccc2ccccc2c1)NC(=O)[C@H](CO)NC(=O)[C@H](Cc1ccccc1)NC(=O)CNC(=O)[C@@H]1CCCN1C(=O)[C@@H]1CCCN1C(=O)[C@H](CCCN=C(N)N)NC(=O)[C@H](CCCCN)NC(C)=O)C(=O)O [Compound 19, AcLys(D-βNal^7, Ile^8)desArg^9BK] (Ac-KRPPGFS[d2Nal]I-OH) | 3.98 | – | – | – | – | – | – |
| CC[C@H](C)[C@H](NC(=O)[C@H](Cc1ccc2ccccc2c1)NC(=O)[C@H](CO)NC(=O)[C@H](Cc1ccccc1)NC(=O)CNC(=O)[C@@H]1CCCN1C(=O)[C@@H]1CCCN1C(=O)[C@H](CCCNC(=N)N)NC(=O)[C@H](CCCCN)NC(C)=O)C(=O)O [Compound 20, AcLys(L-βNal^7, Ile^8)desArg^9BK] (Ac-KRPPGFS[2Nal]I-OH; C-terminus assumed) | 5010 | Inactive | 7760 | – | 0 | 0 | 0.06 |
| CC[C@H](C)[C@H](NC(=O)[C@@H](Cc1ccc2ccccc2c1)NC(=O)[C@H](CO)NC(=O)[C@H](Cc1ccccc1)NC(=O)CNC(=O)[C@@H]1CCCN1C(=O)[C@@H]1CCCN1C(=O)[C@H](CCCNC(=N)N)NC(=O)[C@H](N)CCCNC(=N)N)C(=O)O [Compound 23, D-Arg(D-βNal^7, Ile^8)desArg^9BK] (H-[dR]RPPGFS[d2Nal]I-OH; N-terminus and C-terminus assumed) | 19.1 | – | 427 | – | – | – | – |
| CC(C)C[C@H](NC(=O)[C@@H](Cc1ccc2ccccc2c1)NC(=O)[C@H](CO)NC(=O)[C@H](Cc1ccccc1)NC(=O)CNC(=O)[C@@H]1CCCN1C(=O)[C@@H]1CCCN1C(=O)[C@H](CCCNC(=N)N)NC(=O)[C@H](N)CCCNC(=N)N)C(=O)O [Compound 24, D-Arg(D-βNal^7, Leu^8)desArg^9BK] (H-[dR]RPPGFS[d2Nal]L-OH; N-terminus and C-terminus assumed) | 50.1 | Inactive | 3630 | – | – | – | – |
| CC[C@H](C)[C@H](NC(=O)[C@@H](Cc1ccc2ccccc2c1)NC(=O)[C@H](CO)NC(=O)[C@H](Cc1ccccc1)NC(=O)CNC(=O)[C@@H]1CCCN1C(=O)[C@@H]1CCCN1C(=O)[C@H](CCCNC(=N)N)NC(=O)[C@H](N)CCCCN)C(=O)O [Compound 25, D-Lys(D-βNal^7, Ile^8)desArg^9BK] (H-[dK]RPPGFS[d2Nal]I-OH; N-terminus and C-terminus assumed) | 19.5 | – | 3720 | – | – | – | – |
| CC[C@H](C)[C@H](NC(=O)[C@@H](Cc1ccc2ccccc2c1)NC(=O)[C@H](CO)NC(=O)[C@H](Cc1ccccc1)NC(=O)CNC(=O)[C@@H]1CCCN1C(=O)[C@@H]1CCCN1C(=O)[C@H](CCCNC(=N)N)NC(=O)CNC)C(=O)O [Compound 26, Sar(D-βNal^7, Ile^8)desArg^9BK] (H-[Sar]RPPGFS[d2Nal]I-OH; N-terminus and C-terminus assumed) | 38 | – | 9120 | – | – | – | – |
| CC(=O)N[C@@H](Cc1ccc(O)cc1)C(=O)NCCCCCC(=O)N[C@@H](CCCCN)C(=O)N[C@@H](CCCNC(=N)N)C(=O)N1CCC[C@H]1C(=O)N1CCC[C@H]1C(=O)NCC(=O)N[C@@H](Cc1ccccc1)C(=O)N[C@@H](CO)C(=O)N1CCC[C@H]1C(=O)N[C@@H](CC(C)C)C(=O)O [Compound 27, AcTyrεAhxLys(Leu^8)desArg^9BK] | 7.94 | P.ag. | – | – | 0 | 0.03 | 0.30 |
| CNCC(=O)N[C@@H](Cc1ccc(O)cc1)C(=O)NCCCCCC(=O)N[C@@H](CCCCN)C(=O)N[C@@H](CCCNC(=N)N)C(=O)N1CCC[C@H]1C(=O)N1CCC[C@H]1C(=O)NCC(=O)N[C@@H](Cc1ccccc1)C(=O)N[C@@H](CO)C(=O)N1CCC[C@H]1C(=O)N[C@@H](CC(C)C)C(=O)O [Compound 28, SarTyrεAhxLys(Leu^8)desArg^9BK] | 6.76 | Inactive | – | – | – | – | – |
| CC[C@H](C)[C@H](NC(=O)[C@@H](Cc1ccc2ccccc2c1)NC(=O)[C@H](CO)NC(=O)[C@H](Cc1ccccc1)NC(=O)CNC(=O)[C@@H]1CCCN1C(=O)[C@@H]1CCCN1C(=O)[C@H](CCCNC(=N)N)NC(=O)[C@H](CCCCN)NC(=O)CCCCCNC(=O)[C@H](Cc1ccc(O)cc1)NC(=O)CNC)C(=O)O [Compound 29, SarTyrεAhxLys(D-βNal^7, Ile^8)desArg^9BK] (H-[Sar]Y[Ahx]KRPPGFS[d2Nal]I-OH; N-terminus and C-terminus assumed) | 3.31 | Inactive | 6310 | – | – | – | – |
